In ChEMBL document CHEMBL5705899 (Biochem J, 2014):
Active and inactive are the calls of the source. The rule behind the calls is not given here.

What was measured:
[1] = target: Calcium/calmodulin-dependent protein kinase kinase 2 (Homo sapiens) (UniProt Q96RR4); assay: (§1) Inhibition of recombinant human N-terminal GST-tagged CAMKKbeta (1 to 541 residues) expressed in Escherichia coli assessed as remaining activity at 1 uM using DGEFLRTSCGSPNYAARRR as substrate incubated for 30 mins in presence of [gamma-33P]ATP by filter binding method relative to control
[2] = target: Mitogen-activated protein kinase 10 (Homo sapiens) (UniProt P53779); assay: Inhibition of human JNK3 at 1 uM using ATF2 as substrate in presence of 33P-ATP by ProQinase assay
[3] = target: Mitogen-activated protein kinase kinase kinase kinase 2 (Homo sapiens) (UniProt Q12851); assay: Inhibition of human MAP4K2 at 1 uM using 3xChocktide-PKC as substrate in presence of 33P-ATP by ProQinase assay
[4] = target: Tyrosine-protein kinase ABL1 (Homo sapiens) (UniProt P00519); assay: as §1, with “ABL (118” for “CAMKKbeta (1”, “535” for “541”, “coli co-expressed with His-tagged YopH” for “coli”, “EAIYAAPFAKKK” for “DGEFLRTSCGSPNYAARRR”
[5] = target: Proto-oncogene tyrosine-protein kinase receptor Ret (Homo sapiens) (UniProt P07949); assay: Inhibition of human RET at 1 uM using polyEY as substrate in presence of 33P-ATP by ProQinase assay
[6] = target: Interleukin-1 receptor-associated kinase 1 (Homo sapiens) (UniProt P51617); assay: Inhibition of human IRAK1 at 1 uM using RB-CTF as substrate in presence of 33P-ATP by ProQinase assay
[7] = target: Mitogen-activated protein kinase kinase kinase kinase 4 (Homo sapiens) (UniProt O95819); assay: Inhibition of human MAP4K4 at 1 uM using casein as substrate in presence of 33P-ATP by ProQinase assay
[8] = target: Interleukin-1 receptor-associated kinase 4 (Homo sapiens) (UniProt Q9NWZ3); assay: Inhibition of human IRAK4 at 1 uM using RB-CTF as substrate in presence of 33P-ATP by ProQinase assay
[9] = system: RAF proto-oncogene serine/threonine-protein kinase (Homo sapiens), P04049 [Y340D,Y341D]; assay: Inhibition of human RAF1 Y340D/Y341D double mutant at 1 uM using MEK1-K97M as substrate in presence of 33P-ATP by ProQinase assay
[10] = target: Ephrin type-B receptor 1 (Homo sapiens) (UniProt P54762); assay: Inhibition of recombinant human N-terminal His6-tagged EPHB1 (565 to 984 residues) expressed in baculovirus infected Sf21 cells assessed as remaining activity at 1 uM using Poly (Glu,Tyr) as substrate incubated for 30 mins in presence of [gamma-33P]ATP by filter binding method relative to control
[11] = target: TGF-beta receptor type-2 (Homo sapiens) (UniProt P37173); assay: Inhibition of human TGFBR2 at 1 uM using RB-S6P as substrate in presence of 33P-ATP by ProQinase assay
[12] = target: Serine/threonine-protein kinase D3 (Homo sapiens) (UniProt O94806); assay: Inhibition of human PKCnu at 1 uM using bio-4xCHKT as substrate in presence of 33P-ATP by ProQinase assay
[13] = target: Serine/threonine-protein kinase ULK1 (Homo sapiens) (UniProt O75385); assay: Inhibition of recombinant human ULK1 (2 to 1050 residues) expressed in baculovirus infected Sf21 cells assessed as remaining activity at 1 uM using MBP as substrate incubated for 30 mins in presence of [gamma-33P]ATP by filter binding method relative to control
[14] = target: Aurora kinase B (Homo sapiens) (UniProt Q96GD4); assay: Inhibition of recombinant human N-terminal His6-tagged Aurora B (1 to 344 residues) expressed in Escherichia coli assessed as remaining activity at 1 uM using LRRLSLGLRRLSLGLRRLSLGLRRLSLG as substrate incubated for 30 mins in presence of [gamma-33P]ATP by filter binding method relative to control
[15] = target: Ribosomal protein S6 kinase alpha-2 (Homo sapiens) (UniProt Q15349); assay: Inhibition of human RPS6KA2 at 1 uM using bio-4xCHKT as substrate in presence of 33P-ATP by ProQinase assay
[16] = target: Mitogen-activated protein kinase kinase kinase 3 (Homo sapiens) (UniProt Q99759); assay: Inhibition of human MEKK3 at 1 uM using casein as substrate in presence of 33P-ATP by ProQinase assay
[17] = target: CDK9/cyclin T1 (Homo sapiens) (UniProt O60563+P50750); assay: Inhibition of human CDK9/CyclinT1 at 1 uM using RBER-CHKtide as substrate in presence of 33P-ATP by ProQinase assay; format: protein-complex assay
[18] = target: Casein kinase I isoform delta (Homo sapiens) (UniProt P48730); assay: Inhibition of recombinant human N-terminal GST-tagged CK1delta (1 to 415 residues) expressed in Escherichia coli assessed as remaining activity at 1 uM using RRKDLHDDEEDEAMSITA as substrate incubated for 30 mins in presence of [gamma-33P]ATP by filter binding method relative to control
[19] = target: Ribosomal protein S6 kinase alpha-5 (Homo sapiens) (UniProt O75582); conditions: Sf21, dose 1.0 µM, time 30.0 min
[20] = target: Interleukin-1 receptor-associated kinase 4 (Homo sapiens) (UniProt Q9NWZ3); assay: Inhibition of recombinant human N-terminal GST-tagged IRAK4 (140 to 460 residues) expressed in Escherichia coli assessed as remaining activity at 1 uM using MBP as substrate incubated for 30 mins in presence of [gamma-33P]ATP by filter binding method relative to control
[21] = system: Serine/threonine-protein kinase Sgk1 (Homo sapiens), O00141 [S422D]; conditions: Sf21, dose 1.0 µM, time 30.0 min
[22] = target: Protein kinase C beta type (Homo sapiens) (UniProt P05771); assay: Inhibition of human PKCbeta2 at 1 uM using 3xChocktide-PKC as substrate in presence of 33P-ATP by ProQinase assay
[23] = target: Serine/threonine-protein kinase pim-3 (Homo sapiens) (UniProt Q86V86); assay: Inhibition of human PIM3 at 1 uM using RBER-GSK3 as substrate in presence of 33P-ATP by ProQinase assay
[24] = target: Myotonin-protein kinase (Homo sapiens) (UniProt Q09013); assay: Inhibition of human DMPK at 1 uM using RBER-CHKtide as substrate in presence of 33P-ATP by ProQinase assay
[25] = target: Casein kinase I isoform delta (Homo sapiens) (UniProt P48730); assay: Inhibition of human CK1delta at 1 uM using casein as substrate in presence of 33P-ATP by ProQinase assay
[26] = target: Leukocyte tyrosine kinase receptor (Homo sapiens) (UniProt P29376); assay: Inhibition of human LTK at 1 uM using polyEY as substrate in presence of 33P-ATP by ProQinase assay
[27] = target: Serine/threonine-protein kinase D1 (Homo sapiens) (UniProt Q15139); assay: Inhibition of human PKCmu at 1 uM using RBER-CHKtide as substrate in presence of 33P-ATP by ProQinase assay

Sequence of Interleukin-1 receptor-associated kinase 4 (Homo sapiens) (Q9NWZ3 whole entry, the tested form may be a part): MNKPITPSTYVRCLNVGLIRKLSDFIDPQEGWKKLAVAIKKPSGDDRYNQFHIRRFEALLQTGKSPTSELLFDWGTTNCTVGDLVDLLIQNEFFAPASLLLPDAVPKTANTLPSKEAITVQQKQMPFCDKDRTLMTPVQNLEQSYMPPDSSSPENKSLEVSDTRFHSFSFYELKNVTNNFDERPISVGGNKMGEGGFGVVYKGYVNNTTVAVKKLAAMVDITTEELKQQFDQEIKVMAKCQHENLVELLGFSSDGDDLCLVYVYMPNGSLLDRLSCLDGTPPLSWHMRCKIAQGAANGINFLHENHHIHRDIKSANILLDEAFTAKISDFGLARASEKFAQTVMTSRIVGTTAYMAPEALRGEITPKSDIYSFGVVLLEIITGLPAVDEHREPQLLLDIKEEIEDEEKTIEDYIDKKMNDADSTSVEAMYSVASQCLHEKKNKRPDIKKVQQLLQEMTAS
Sequence of Casein kinase I isoform delta (Homo sapiens) (P48730 whole entry, looked up, the tested form may be a part, canonical isoform): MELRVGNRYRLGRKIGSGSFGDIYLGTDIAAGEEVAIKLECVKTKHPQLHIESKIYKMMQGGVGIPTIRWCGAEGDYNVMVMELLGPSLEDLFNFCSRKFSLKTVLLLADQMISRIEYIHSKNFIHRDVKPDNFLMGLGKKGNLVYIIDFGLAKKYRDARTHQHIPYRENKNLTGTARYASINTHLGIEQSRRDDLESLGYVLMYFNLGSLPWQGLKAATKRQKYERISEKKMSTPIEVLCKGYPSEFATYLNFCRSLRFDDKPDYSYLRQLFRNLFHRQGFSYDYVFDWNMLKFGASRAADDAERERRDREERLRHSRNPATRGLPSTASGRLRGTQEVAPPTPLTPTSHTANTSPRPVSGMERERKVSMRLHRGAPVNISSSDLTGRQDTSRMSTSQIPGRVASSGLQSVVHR
Sequence of Serine/threonine-protein kinase Sgk1 (Homo sapiens), O00141 [S422D] (O00141 whole entry S422D): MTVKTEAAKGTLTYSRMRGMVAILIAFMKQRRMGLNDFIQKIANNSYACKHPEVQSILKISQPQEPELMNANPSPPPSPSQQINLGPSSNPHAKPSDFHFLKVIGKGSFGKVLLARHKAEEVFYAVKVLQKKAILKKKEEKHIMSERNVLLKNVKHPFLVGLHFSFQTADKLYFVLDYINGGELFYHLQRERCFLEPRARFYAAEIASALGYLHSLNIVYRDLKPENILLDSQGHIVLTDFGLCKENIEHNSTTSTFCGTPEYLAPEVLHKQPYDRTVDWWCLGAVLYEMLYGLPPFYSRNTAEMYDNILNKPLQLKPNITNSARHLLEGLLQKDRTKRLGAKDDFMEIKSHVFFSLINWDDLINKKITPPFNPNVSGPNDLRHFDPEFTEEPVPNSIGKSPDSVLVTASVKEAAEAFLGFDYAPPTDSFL
Sequence of Myotonin-protein kinase (Homo sapiens) (Q09013 whole entry, canonical isoform): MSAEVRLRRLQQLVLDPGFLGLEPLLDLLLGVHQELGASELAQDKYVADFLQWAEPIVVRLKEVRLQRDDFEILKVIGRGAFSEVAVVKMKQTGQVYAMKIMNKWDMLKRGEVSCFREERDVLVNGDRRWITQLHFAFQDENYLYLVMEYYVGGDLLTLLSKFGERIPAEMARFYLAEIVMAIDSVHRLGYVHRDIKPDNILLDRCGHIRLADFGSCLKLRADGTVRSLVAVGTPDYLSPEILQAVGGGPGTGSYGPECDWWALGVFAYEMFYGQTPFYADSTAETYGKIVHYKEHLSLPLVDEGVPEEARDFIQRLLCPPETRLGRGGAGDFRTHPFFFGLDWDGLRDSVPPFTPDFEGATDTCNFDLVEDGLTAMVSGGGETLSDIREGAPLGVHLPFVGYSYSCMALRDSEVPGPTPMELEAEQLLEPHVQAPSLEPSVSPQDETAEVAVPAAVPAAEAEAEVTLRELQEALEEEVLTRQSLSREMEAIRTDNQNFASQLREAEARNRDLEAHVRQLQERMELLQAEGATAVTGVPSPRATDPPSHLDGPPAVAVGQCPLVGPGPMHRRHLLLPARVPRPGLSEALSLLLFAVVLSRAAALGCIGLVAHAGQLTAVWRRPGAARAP
Sequence of Mitogen-activated protein kinase 10 (Homo sapiens) (P53779 whole entry): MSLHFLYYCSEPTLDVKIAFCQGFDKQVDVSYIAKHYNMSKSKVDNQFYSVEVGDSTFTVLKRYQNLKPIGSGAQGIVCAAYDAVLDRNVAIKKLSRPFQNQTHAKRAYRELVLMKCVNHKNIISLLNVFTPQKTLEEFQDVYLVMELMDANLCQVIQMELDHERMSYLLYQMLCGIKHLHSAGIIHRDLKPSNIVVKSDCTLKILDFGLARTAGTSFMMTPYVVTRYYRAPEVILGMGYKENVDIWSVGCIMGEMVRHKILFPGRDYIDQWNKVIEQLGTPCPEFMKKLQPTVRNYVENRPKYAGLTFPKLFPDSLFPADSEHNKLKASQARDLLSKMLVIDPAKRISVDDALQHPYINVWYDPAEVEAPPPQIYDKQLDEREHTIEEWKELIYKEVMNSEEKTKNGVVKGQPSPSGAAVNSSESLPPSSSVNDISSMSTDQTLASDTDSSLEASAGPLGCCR
Sequence of TGF-beta receptor type-2 (Homo sapiens) (P37173 whole entry): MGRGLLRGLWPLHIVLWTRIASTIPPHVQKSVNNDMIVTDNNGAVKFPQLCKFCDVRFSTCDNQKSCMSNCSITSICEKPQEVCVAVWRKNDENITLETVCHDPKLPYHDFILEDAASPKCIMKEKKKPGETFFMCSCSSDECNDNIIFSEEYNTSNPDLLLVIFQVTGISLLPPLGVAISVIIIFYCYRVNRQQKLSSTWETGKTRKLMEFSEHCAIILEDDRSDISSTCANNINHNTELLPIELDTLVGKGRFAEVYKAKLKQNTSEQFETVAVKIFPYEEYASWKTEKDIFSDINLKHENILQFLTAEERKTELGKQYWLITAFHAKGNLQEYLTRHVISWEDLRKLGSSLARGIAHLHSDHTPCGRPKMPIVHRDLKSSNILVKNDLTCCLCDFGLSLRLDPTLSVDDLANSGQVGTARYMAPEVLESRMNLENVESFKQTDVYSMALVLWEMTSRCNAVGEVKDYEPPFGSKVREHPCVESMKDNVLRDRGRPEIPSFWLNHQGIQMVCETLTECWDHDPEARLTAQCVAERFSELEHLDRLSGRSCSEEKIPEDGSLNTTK
Sequence of Protein kinase C beta type (Homo sapiens) (P05771 2-671 limits assumed): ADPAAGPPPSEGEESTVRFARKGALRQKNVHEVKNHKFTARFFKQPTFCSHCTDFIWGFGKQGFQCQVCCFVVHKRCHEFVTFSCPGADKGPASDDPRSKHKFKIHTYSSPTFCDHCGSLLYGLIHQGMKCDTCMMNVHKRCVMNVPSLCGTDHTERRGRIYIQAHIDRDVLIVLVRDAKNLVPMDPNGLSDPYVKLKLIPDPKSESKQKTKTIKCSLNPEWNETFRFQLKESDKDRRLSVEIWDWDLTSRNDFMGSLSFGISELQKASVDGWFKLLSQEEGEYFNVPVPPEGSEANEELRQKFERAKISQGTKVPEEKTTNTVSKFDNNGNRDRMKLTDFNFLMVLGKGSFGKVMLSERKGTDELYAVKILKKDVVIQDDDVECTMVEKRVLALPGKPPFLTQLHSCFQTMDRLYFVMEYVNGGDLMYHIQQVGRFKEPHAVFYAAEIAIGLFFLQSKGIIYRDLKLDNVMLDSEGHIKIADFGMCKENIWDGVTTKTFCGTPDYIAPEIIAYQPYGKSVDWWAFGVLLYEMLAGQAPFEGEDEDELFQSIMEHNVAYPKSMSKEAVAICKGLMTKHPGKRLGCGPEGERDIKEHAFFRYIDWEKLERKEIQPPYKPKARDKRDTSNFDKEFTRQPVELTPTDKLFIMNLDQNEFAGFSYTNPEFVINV
Sequence of RAF proto-oncogene serine/threonine-protein kinase (Homo sapiens), P04049 [Y340D,Y341D] (P04049 whole entry Y340D/Y341D, the tested form may be a part): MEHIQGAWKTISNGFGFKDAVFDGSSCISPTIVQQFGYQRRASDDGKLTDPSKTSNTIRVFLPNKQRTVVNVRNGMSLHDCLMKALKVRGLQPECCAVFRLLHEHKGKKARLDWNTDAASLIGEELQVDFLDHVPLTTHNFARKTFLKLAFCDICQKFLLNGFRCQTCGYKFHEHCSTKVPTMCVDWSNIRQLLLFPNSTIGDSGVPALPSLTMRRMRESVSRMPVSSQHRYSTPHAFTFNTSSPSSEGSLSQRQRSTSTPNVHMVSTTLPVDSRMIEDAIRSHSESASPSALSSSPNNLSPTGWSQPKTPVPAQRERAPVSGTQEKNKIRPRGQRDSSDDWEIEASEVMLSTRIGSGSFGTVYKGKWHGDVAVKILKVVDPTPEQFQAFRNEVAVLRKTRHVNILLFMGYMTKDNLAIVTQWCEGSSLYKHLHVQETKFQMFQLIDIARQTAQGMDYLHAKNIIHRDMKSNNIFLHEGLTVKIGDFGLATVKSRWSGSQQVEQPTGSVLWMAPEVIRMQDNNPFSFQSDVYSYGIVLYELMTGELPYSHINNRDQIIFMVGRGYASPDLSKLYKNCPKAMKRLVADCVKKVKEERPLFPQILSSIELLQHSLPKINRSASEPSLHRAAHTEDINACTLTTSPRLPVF
Sequence of Ribosomal protein S6 kinase alpha-2 (Homo sapiens) (Q15349 whole entry): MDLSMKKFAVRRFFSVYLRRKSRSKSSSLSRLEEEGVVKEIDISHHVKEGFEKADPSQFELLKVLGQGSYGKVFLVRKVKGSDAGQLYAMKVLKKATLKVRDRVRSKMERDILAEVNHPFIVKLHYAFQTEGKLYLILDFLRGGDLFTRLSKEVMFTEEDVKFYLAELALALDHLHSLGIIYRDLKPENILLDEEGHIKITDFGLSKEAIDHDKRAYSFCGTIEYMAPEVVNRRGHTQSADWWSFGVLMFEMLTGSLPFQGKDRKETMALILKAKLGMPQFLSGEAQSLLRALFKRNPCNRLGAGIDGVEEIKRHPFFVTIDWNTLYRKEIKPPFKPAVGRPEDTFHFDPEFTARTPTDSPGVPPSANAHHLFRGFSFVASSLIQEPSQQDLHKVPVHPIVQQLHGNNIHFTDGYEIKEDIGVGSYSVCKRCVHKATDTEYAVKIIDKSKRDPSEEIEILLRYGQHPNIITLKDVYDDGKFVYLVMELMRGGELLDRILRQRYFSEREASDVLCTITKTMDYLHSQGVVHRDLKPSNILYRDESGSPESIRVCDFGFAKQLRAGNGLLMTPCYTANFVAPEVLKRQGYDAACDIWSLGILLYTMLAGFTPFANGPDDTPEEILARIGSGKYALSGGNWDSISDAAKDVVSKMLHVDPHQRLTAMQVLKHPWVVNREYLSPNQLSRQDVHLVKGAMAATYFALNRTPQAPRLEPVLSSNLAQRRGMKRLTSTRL

CC(C)(O)CNc1ncc(-c2ccnc(Nc3ccnc(Cl)c3)n2)c(CC2CC2)n1
Activity [1]: 108%
inhibition [2]: inactive
inhibition [3]: inactive
Activity [4]: 87%
inhibition [5]: inactive
inhibition [6]: inactive
inhibition [7]: inactive
inhibition [8]: inactive
inhibition [9]: inactive
Activity [10]: 99%
inhibition [11]: inactive
inhibition [12]: inactive
Activity [13]: 98%
Activity [14]: 83%
inhibition [15]: inactive
inhibition [16]: inactive
inhibition [17]: inactive
Activity [18]: 105%
Activity [19]: 105%
Activity [20]: 133%
Activity [21]: 108%
inhibition [22]: inactive
inhibition [23]: inactive
inhibition [24]: inactive
inhibition [25]: inactive
inhibition [26]: inactive
inhibition [27]: inactive
